Patent US9695155B2, “Herbicidal substituted pyrimidinyloxy benzene compounds” (E. I. DU PONT DE NEMOURS AND COMPANY, priority 2013, dated 2017)

Tests used:
corn [1] = experiment: Test A postemergence; type: in vivo, Zea mays
Source text: (§1) Seeds of plant species selected from barnyardgrass (Echinochloa crus-galli), kochia (Kochia scoparia), ragweed (common ragweed, Ambrosia elatior), Italian ryegrass (Lolium multiflorum), large (Lg) crabgrass (Digitaria sanguinalis), giant foxtail (Setaria faberii), morningglory (Ipomoea spp.), pigweed (Amaranthus retroflexus), velvetleaf (Abutilon theophrasti), wheat (Triticum aestivum), and corn (Zea mays) were planted into a blend of loam soil and sand and treated preemergence with a directed soil spray using test chemicals formulated in a non-phytotoxic solvent mixture which included a surfactant.
(§2) At the same time, plants selected from these crop and weed species and also blackgrass (Alopecurus myosuroides), and galium (catchweed bedstraw, Galium aparine) were planted in pots containing the same blend of loam soil and sand and treated with postemergence applications of test chemicals formulated in the same manner. Plants ranged in height from 2 to 10 cm and were in the one- to two-leaf stage for the postemergence treatment. Treated plants and untreated controls were maintained in a greenhouse for approximately 10 days, after which time all treated plants were compared to untreated controls and visually evaluated for injury. Plant response ratings, summarized in Table A, are based on a 0 to 100 scale where 0 is no effect and 100 is complete control. A dash (-) response means no test result.

barnyardgrass [2] = experiment: Test A preemergence; type: in vivo, Echinochloa crus-galli; conditions: for Barnyardgrass plant response rating: approx. 10 days
Source text: as §1, §2

pigweed [3] = experiment: Test A preemergence; type: in vivo, Amaranthus retroflexus; conditions: for Pigweed plant response rating: 0 to 100 scale, 0 no effect, 100 complete control, approx. 10 days
Source text: as §1, §2

morningglory [4] = experiment: Test A postemergence; type: in vivo, Ipomoea spp.
Source text: as §1, §2

wheat [5] = experiment: Test A preemergence; type: in vivo, Triticum aestivum; conditions: for Wheat plant response rating: 0 to 100 scale, 0 no effect, 100 complete control, approx. 10 days
Source text: as §1, §2

giant foxtail [6] = experiment: Test A preemergence; type: in vivo, Setaria faberii; conditions: for Foxtail, Giant plant response rating: 0 to 100 scale, 0 no effect, 100 complete control, approx. 10 days
Source text: as §1, §2

large (Lg) crabgrass [7] = experiment: Test A postemergence; type: in vivo, Digitaria sanguinalis
Source text: as §1, §2

giant foxtail [8] = experiment: Test A postemergence; type: in vivo, Setaria faberii
Source text: as §1, §2

wheat [9] = experiment: Test A postemergence; type: in vivo, Triticum aestivum
Source text: as §1, §2

velvetleaf [10] = experiment: Test A preemergence; type: in vivo, Abutilon theophrasti; conditions: for Velvetleaf plant response rating: 0 to 100 scale, 0 no effect, 100 complete control, approx. 10 days
Source text: as §1, §2

barnyardgrass [11] = experiment: Test A postemergence; type: in vivo, Echinochloa crus-galli
Source text: as §1, §2

large (Lg) crabgrass [12] = experiment: Test A preemergence; type: in vivo, Digitaria sanguinalis; conditions: for Crabgrass, Large plant response rating: approx. 10 days
Source text: as §1, §2

velvetleaf [13] = experiment: Test A postemergence; type: in vivo, Abutilon theophrasti
Source text: as §1, §2

corn [14] = experiment: Test A preemergence; type: in vivo, Zea mays; conditions: for Corn plant response rating: approx. 10 days
Source text: as §1, §2

pigweed [15] = experiment: Test A postemergence; type: in vivo, Amaranthus retroflexus
Source text: as §1, §2

morningglory [16] = experiment: Test A preemergence; type: in vivo, Ipomoea spp.; conditions: for Morningglory plant response rating: 0 to 100 scale, 0 no effect, 100 complete control, approx. 10 days
Source text: as §1, §2

[17] = 1000 g ai/ha, 0 to 100 scale, 0 no effect, 100 complete control
[18] = 500 g ai/ha, 0 to 100 scale, 0 no effect, 100 complete control
[19] = 500 g ai/ha, 0 to 100 scale where 0 is no effect and 100 is complete control
[20] = 125 g ai/ha, 0 to 100 scale where 0 is no effect and 100 is complete control

N#Cc1cnn(-c2ccccc2Oc2ncc(Br)cn2)n1 [Compound 56]
Plant response rating, Corn (corn [1]; [17]): 20
Plant response rating, Barnyardgrass (barnyardgrass [2]; [17]): 0
Pigweed plant response rating (pigweed [3]; 1000 g ai/ha): 100
Plant response rating, Morningglory (morningglory [4]; [17]): 0
Wheat plant response rating (wheat [5]; 1000 g ai/ha): 0
Foxtail, Giant plant response rating (giant foxtail [6]; 1000 g ai/ha): 30
Plant response rating, Crabgrass, Large (large (Lg) crabgrass [7]; [17]): 40
Plant response rating, Foxtail, Giant (giant foxtail [8]; [17]): 30
Plant response rating, Wheat (wheat [9]; [17]): 0
Velvetleaf plant response rating (velvetleaf [10]; 1000 g ai/ha): 90
Plant response rating, Barnyardgrass (barnyardgrass [11]; [17]): 30
Plant response rating, Crabgrass, Large (large (Lg) crabgrass [12]; [17]): 80
Plant response rating, Velvetleaf (velvetleaf [13]; [17]): 100
Plant response rating, Corn (corn [14]; [17]): 20
Plant response rating, Pigweed (pigweed [15]; [17]): 90
Morningglory plant response rating (morningglory [16]; 1000 g ai/ha): 0

FC(F)(F)Oc1cccc(Oc2ncc(Cl)cn2)c1-n1cc(Br)cn1 [Compound 78]
Plant response rating, Corn (corn [1]; [18]): 30
Barnyardgrass plant response rating (barnyardgrass [2]; [18]): 80
Pigweed plant response rating (pigweed [3]; 500 g ai/ha): 100
Plant response rating, Morningglory (morningglory [4]; [19]): 90
Wheat plant response rating (wheat [5]; 500 g ai/ha): 10
Foxtail, Giant plant response rating (giant foxtail [6]; 500 g ai/ha): 100
Plant response rating, Crabgrass, Large (large (Lg) crabgrass [7]; [18]): 100
Plant response rating, Foxtail, Giant (giant foxtail [8]; [19]): 90
Plant response rating, Wheat (wheat [9]; [19]): 20
Velvetleaf plant response rating (velvetleaf [10]; 500 g ai/ha): 50
Plant response rating, Barnyardgrass (barnyardgrass [11]; [18]): 50
Crabgrass, Large plant response rating (large (Lg) crabgrass [12]; [18]): 100
Plant response rating, Velvetleaf (velvetleaf [13]; [19]): 100
Corn plant response rating (corn [14]; [18]): 10
Plant response rating, Pigweed (pigweed [15]; [19]): 100
Morningglory plant response rating (morningglory [16]; 500 g ai/ha): 20

Clc1cnc(Oc2ccccc2-n2cc(Cl)nn2)nc1 [Compound 224]
Plant response rating, Corn (corn [1]; [17]): 50
Barnyardgrass plant response rating (barnyardgrass [2]; [17]): 100
Pigweed plant response rating (pigweed [3]; 1000 g ai/ha): 100
Plant response rating, Morningglory (morningglory [4]; [17]): 100
Wheat plant response rating (wheat [5]; 1000 g ai/ha): 60
Foxtail, Giant plant response rating (giant foxtail [6]; 1000 g ai/ha): 100
Plant response rating, Crabgrass, Large (large (Lg) crabgrass [7]; [17]): 80
Plant response rating, Foxtail, Giant (giant foxtail [8]; [17]): 90
Plant response rating, Wheat (wheat [9]; [17]): 60
Velvetleaf plant response rating (velvetleaf [10]; 1000 g ai/ha): 100
Plant response rating, Barnyardgrass (barnyardgrass [11]; [17]): 90
Crabgrass, Large plant response rating (large (Lg) crabgrass [12]; [17]): 100
Plant response rating, Velvetleaf (velvetleaf [13]; [17]): 100
Corn plant response rating (corn [14]; [17]): 40
Plant response rating, Pigweed (pigweed [15]; [17]): 100
Morningglory plant response rating (morningglory [16]; 1000 g ai/ha): 90

N#Cc1cnn(-c2ccccc2Oc2ncc(Cl)cn2)n1 [Compound 55]
Plant response rating, Corn (corn [1]; [17]): 20
Plant response rating, Barnyardgrass (barnyardgrass [2]; [17]): 40
Pigweed plant response rating (pigweed [3]; 1000 g ai/ha): 90
Plant response rating, Morningglory (morningglory [4]; [17]): 80
Wheat plant response rating (wheat [5]; 1000 g ai/ha): 0
Foxtail, Giant plant response rating (giant foxtail [6]; 1000 g ai/ha): 90
Plant response rating, Crabgrass, Large (large (Lg) crabgrass [7]; [17]): 40
Plant response rating, Foxtail, Giant (giant foxtail [8]; [17]): 60
Plant response rating, Wheat (wheat [9]; [17]): 0
Velvetleaf plant response rating (velvetleaf [10]; 1000 g ai/ha): 100
Plant response rating, Barnyardgrass (barnyardgrass [11]; [17]): 10
Plant response rating, Crabgrass, Large (large (Lg) crabgrass [12]; [17]): 90
Plant response rating, Velvetleaf (velvetleaf [13]; [17]): 100
Plant response rating, Corn (corn [14]; [17]): 0
Plant response rating, Pigweed (pigweed [15]; [17]): 90
Morningglory plant response rating (morningglory [16]; 1000 g ai/ha): 0

Fc1cnc(Oc2ccccc2-n2cccn2)nc1 [Compound 14]
Plant response rating, Corn (corn [1]; [17]): 20
Plant response rating, Barnyardgrass (barnyardgrass [2]; [17]): 30
Pigweed plant response rating (pigweed [3]; 1000 g ai/ha): 100
Plant response rating, Morningglory (morningglory [4]; [17]): 70
Wheat plant response rating (wheat [5]; 1000 g ai/ha): 20
Foxtail, Giant plant response rating (giant foxtail [6]; 1000 g ai/ha): 90
Plant response rating, Crabgrass, Large (large (Lg) crabgrass [7]; [17]): 30
Plant response rating, Foxtail, Giant (giant foxtail [8]; [17]): 40
Plant response rating, Wheat (wheat [9]; [17]): 20
Velvetleaf plant response rating (velvetleaf [10]; 1000 g ai/ha): 90
Plant response rating, Barnyardgrass (barnyardgrass [11]; [17]): 20
Plant response rating, Crabgrass, Large (large (Lg) crabgrass [12]; [17]): 90
Plant response rating, Velvetleaf (velvetleaf [13]; [17]): 90
Plant response rating, Corn (corn [14]; [17]): 0
Plant response rating, Pigweed (pigweed [15]; [17]): 100
Morningglory plant response rating (morningglory [16]; 1000 g ai/ha): 20

COc1cccc(-n2cc(Br)cn2)c1Oc1ncc(Cl)cn1 [Compound 41]
Plant response rating, Corn (corn [1]; [20]): 0
Plant response rating, Corn (corn [1]; [18]): 20
Plant response rating, Barnyardgrass (barnyardgrass [2]; [20]): 10
Barnyardgrass plant response rating (barnyardgrass [2]; [18]): 50
Plant response rating, Pigweed (pigweed [3]; [20]): 70
Pigweed plant response rating (pigweed [3]; 500 g ai/ha): 100
Plant response rating, Morningglory (morningglory [4]; [20]): 20
Plant response rating, Morningglory (morningglory [4]; [18]): 30
Plant response rating, Wheat (wheat [5]; [20]): 0
Wheat plant response rating (wheat [5]; 500 g ai/ha): 0
Plant response rating, Foxtail, Giant (giant foxtail [6]; [20]): 10
Foxtail, Giant plant response rating (giant foxtail [6]; 500 g ai/ha): 80
Plant response rating, Crabgrass, Large (large (Lg) crabgrass [7]; [20]): 20
Plant response rating, Crabgrass, Large (large (Lg) crabgrass [7]; [18]): 70
Plant response rating, Foxtail, Giant (giant foxtail [8]; [20]): 20
Plant response rating, Foxtail, Giant (giant foxtail [8]; [18]): 80
Plant response rating, Wheat (wheat [9]; [20]): 0
Plant response rating, Wheat (wheat [9]; [18]): 0
Plant response rating, Velvetleaf (velvetleaf [10]; [20]): 60
Velvetleaf plant response rating (velvetleaf [10]; 500 g ai/ha): 70
Plant response rating, Barnyardgrass (barnyardgrass [11]; [20]): 10
Plant response rating, Barnyardgrass (barnyardgrass [11]; [18]): 50
Plant response rating, Crabgrass, Large (large (Lg) crabgrass [12]; [20]): 30
Crabgrass, Large plant response rating (large (Lg) crabgrass [12]; [18]): 70
Plant response rating, Velvetleaf (velvetleaf [13]; [20]): 70
Plant response rating, Velvetleaf (velvetleaf [13]; [18]): 100
Plant response rating, Corn (corn [14]; [20]): 0
Corn plant response rating (corn [14]; [18]): 0
Plant response rating, Pigweed (pigweed [15]; [20]): 50
Plant response rating, Pigweed (pigweed [15]; [18]): 80
Plant response rating, Morningglory (morningglory [16]; [20]): 0
Morningglory plant response rating (morningglory [16]; 500 g ai/ha): 0
